Structures can show the parent of a compound that is named as a salt.
melting point: 123 to 125 °C
SMILES: NCCc1cccc(Oc2cc(Cl)ccc2N(Cc2ccc(-c3ccccc3)cc2)C(=O)CCC(=O)NCc2ccccc2F)c1 (as salt: hydrochloride) [Example 14, N-[2-[3-(2-aminoethyl)phenoxy]-4-chlorophenyl]-N-(4-biphenylmethyl)-N′-(2-fluorobenzyl)succinamide hydrochloride]
